Measurements from PMC11424024 (Methods in enzymology, 2024).

Columns and labels:
Rv0097 = Rv0097 (Mycobacterium tuberculosis, UniProt P9WG83)
ScoE = ScoE (Streptomyces coeruleorubidus, UniProt A0A3B6UEU3); experiment: LC-HRMS; format: biochemical; conditions: α-KG, Fe(II); no INBA formed, only a trace of 2

Chain of Rv0097 (P9WG83 whole entry): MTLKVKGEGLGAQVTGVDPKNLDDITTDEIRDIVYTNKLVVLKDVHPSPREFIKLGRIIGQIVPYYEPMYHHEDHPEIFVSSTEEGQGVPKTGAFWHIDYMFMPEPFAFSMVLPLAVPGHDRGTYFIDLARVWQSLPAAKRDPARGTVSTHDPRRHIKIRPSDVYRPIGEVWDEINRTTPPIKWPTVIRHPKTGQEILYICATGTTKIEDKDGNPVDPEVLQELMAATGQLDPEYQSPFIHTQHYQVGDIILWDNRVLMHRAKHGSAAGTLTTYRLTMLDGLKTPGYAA

## CCCCCCCC(CC(=O)O)NCC(=O)O (racemic) [CADA, 3-[(carboxymethyl)amino]decanoic acid]
Rv0097
  LC-HRMS of INDA formation: We reconstituted the activity of Rv0097 using the surrogate substrate CADA

## C[C@H](CC(=O)O)NCC(=O)O [CABA, (R)-3-((carboxymethyl)amino)butanoic acid]
ScoE
  LC-HRMS; glyoxylate derivatization with 2-nitrophenylhydrazine: Y96F ScoE mutant revealed that it was unable to synthesize INBA from CABA
